Legend:
human recombinant PTP1B [1] = molecular target: T1, human recombinant PTP1B (Homo sapiens, UniProt P18031); assay: Inhibition of human recombinant PTP1B, p-nitrophenyl phosphate as substrate; format: biochemical; settings: human recombinant PTP1B, pNPP as substrate; mean ± S.E.M
T1 sequence (P18031 1-435): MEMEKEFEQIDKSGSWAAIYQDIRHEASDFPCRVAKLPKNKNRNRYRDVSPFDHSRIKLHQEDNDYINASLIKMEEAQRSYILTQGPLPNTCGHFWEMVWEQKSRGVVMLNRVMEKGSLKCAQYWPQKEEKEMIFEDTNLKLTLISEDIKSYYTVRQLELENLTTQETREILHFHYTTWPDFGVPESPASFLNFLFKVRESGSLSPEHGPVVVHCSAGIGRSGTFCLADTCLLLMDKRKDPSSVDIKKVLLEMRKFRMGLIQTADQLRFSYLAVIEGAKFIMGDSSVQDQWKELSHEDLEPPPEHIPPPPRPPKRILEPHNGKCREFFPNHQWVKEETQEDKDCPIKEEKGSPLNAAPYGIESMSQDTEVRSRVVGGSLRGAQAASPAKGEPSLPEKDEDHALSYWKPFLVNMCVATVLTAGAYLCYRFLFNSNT
Protocol: PTP1B activity was determined as follow. […] After an appropriate interval time, the reaction was stopped diluting assay solution with 2 mL of KOH 0.1 M. The amount of p-nitrophenol released was determined measuring the absorbance of the solution at 400 nm using a spectrophotometer and a 1-cm optical pathlength (εmM of p-nitrophenol is 18). The IC50 value was determined measuring the pNPP hydrolysis rate in the presence of increasing inhibitor concentration. For each inhibitor, 15–16 different concentrations were used. All tests were carried out in triplicate and data obtained were normalized respect to control sample.

human recombinant AR = molecular target: T2, human recombinant AR (Homo sapiens, UniProt P15121); assay: Kinetic analysis of AR inhibition (Lineweaver-Burk and secondary plots); format: biochemical
T2 construct: made in house; host or cells: E. coli BL21(DE3)pLysS
Protocol: The kinetic analysis of compounds 4a, 4e and 4f was performed by measuring reaction rates with different L-idose concentrations s (S) in the absence and in the presence of different inhibitors concentrations. Data were analyzed by Linewever-Burk plots.

human recombinant PTP1B [2] = molecular target: T1, human recombinant PTP1B; assay: Reversibility assay (dilution test) with PTP1B; format: biochemical; settings: saturating inhibitor, 60 min 37 °C, diluted 400 folds
Protocol: An aliquot of the enzyme was incubated for 60 min at 37 °C in the presence of saturating amount of PTP1B inhibitor. After this time, an aliquot of the enzyme was withdrawn and diluted 400 folds in the assay buffer containing 2.5 mM of pNPP. After 15 min, the reaction was stopped by adding 1 mL of KOH 0.2 M. The amount of pNP released was calculating measuring the absorbance at 400 nm of solutions using a spectrophotometer. Data obtained were normalized respect to control tests, which was carried out diluting the enzyme with DMSO, the solvent used to dissolve all compounds. Data reported in the figure represent the mean value +/− S.E.M. (n = 3).

HepG2 cells = assay: Cell viability, MTT assay, HepG2; format: cell-based, human; settings: HepG2, 48 h, up to 50 μM
Protocol: Human liver cells (HepG2) and murine myoblasts (C2C12) were purchased by Sigma-Aldrich, which obtained them from the European Collection of Authenticated Cell Cultures (ECACC). HepG2 and C2C12 cells were grown in Dulbecco’s Modified Eagle’s medium (DMEM) supplemented with 10% foetal bovine serum (FBS), 2 mM glutamine, 100 IU/mL penicillin, 100 μg/mL streptomycin (Sigma-Aldrich, St. Louis, MO, USA), in a humidified atmosphere and with 5% CO2 at 37 °C. Differentiation of C2C12 was induced incubating murine myoblasts in DMEM supplemented with 2% horse serum. C2C12 cells were plated and grown until they reach 70% confluence. Then, cells were incubated in the presence of 2% horse serum for 96 h. Every 48 h, the medium was replaced with fresh medium. After 96 h, the degree of differentiation was evaluated analysing cells with a contrast phase microscope.
HepG2 and C2C12 cells were incubated in the presence of increasing concentrations of compounds 4e and 4f for 48 h at 37 °C. After this time, cells were washed with PBS and then incubated for 1 h with 0.5 mg/mL of MTT dissolved in complete medium. Then cells were washed and lysed with 300 μL of DMSO. The absorbance of solutions were evaluated using a microplate readers at 595 nm. All data were normalized respect to control experiment.

human recombinant PTP1B [3] = molecular target: T1, human recombinant PTP1B; assay: Kinetic analysis of PTP1B inhibition (Lineweaver-Burk plot); format: biochemical; settings: pNPP as substrate
Protocol: Kinetic analyses were carried out to dissect action mechanism of compound 4e and 4f. Briefly, the main kinetic parameters, Km and Vmax, were calculated measuring the initial hydrolysis rate of PTP1B in the presence of increasing pNPP concentration (seven different concentrations in the 0.5–25 mM range). All assays were carried out in duplicate. Data obtained were fitted using the Michaelis-Menten equation. To evaluate the action mechanism of inhibitors, we studied the dependence of Km and Vmax from inhibitors concentration, using three different inhibitor concentrations, at least. Data obtained were then analysed by double reciprocal plot (Lineweaver-Burk plot).

[4] = system: insulin receptor (IRβ) phosphorylation in C2C12 cells; assay: Insulin receptor phosphorylation in C2C12 cells (western blot); format: cell-based, murine
Protocol: (§1) The insulin mimetic/sensitizing activity of compound 4f was evaluated on both HepG2 and C2C12 cells. Starved HepG2 and C2C12 cells were incubated in the presence of compound 4f (25 μM) for 90 min and after stimulated or not with insulin (10 nM). Then, cells extracts were analysed to evaluate phosphorylation levels of the insulin receptor.
(§2) HepG2 and differentiated C2C12 cells were starved for 24 h and then incubated in the presence of compound 4f (25 μM, final concentration) for 90 min. After this time, cells were washed with PBS and then stimulated or not with 10 nM insulin for 30 min. Then, cells were lysed and cellular proteins separated on a 12% SDS-PAGE. After electrophoresis, cellular proteins were transferred on a PVDF membrane by western blot technique and then probed against antibodies able to specifically recognize insulin receptor (I2033 Sigma Aldrich) or phosphorylated form of IR (MABS65, Sigma-Aldrich). Sample loading was evaluated probing PVDF membrane with anti-actin antibodies (ABT1485 Sigma Aldrich).

[5] = system: insulin receptor (IRβ) phosphorylation in HepG2 cells; assay: Insulin receptor phosphorylation in HepG2 cells (western blot); format: cell-based, human
Protocol: as §1, §2

Structure (SMILES): O=C(O)CCN1C(=O)/C(=C/c2ccc(OCCc3ccccc3)cc2)SC1=S [4f, 3-[(5Z)-4-Oxo-{5-[4-(2-phenylethoxy)phenyl]methylidene}-2-thioxothiazolidin-3-yl]propanoic acid]
- IC50 (human recombinant PTP1B [1]): 12.7 ± 0.3 µM
- AR Ki relative to K′i (human recombinant AR; Ki higher than K′i): at least ten-fold higher
- AR K′i (apparent dissociation constant, EIS complex) (human recombinant AR; L-idose as substrate): 2.9 ± 0.12 µM
- Mechanism of AR inhibition (human recombinant AR; L-idose as substrate): uncompetitive inhibitors
- Ki (human recombinant AR; L-idose as substrate, read-out: AR Ki (apparent dissociation constant)): > 30 µM
- Reversibility of PTP1B inhibition (human recombinant PTP1B [2]): reversible inhibitors
- Cytotoxicity (cell viability, MTT) (HepG2 cells): well tolerated
- Mechanism of PTP1B inhibition (human recombinant PTP1B [3]): mixed-type non-competitive inhibitors
- PTP1B K′i (apparent dissociation constant, EIS complex) (human recombinant PTP1B [3]): 2.3 ± 0.1 µM
- Ki (human recombinant PTP1B [3]; read-out: PTP1B Ki (apparent dissociation constant)): 900 ± 100 nM
- IRβ phosphorylation levels after insulin versus insulin alone ([4]; C2C12, 25 μM for 90 min, then 10 nM insulin 30 min): significantly higher
- Effect on basal IR phosphorylation levels ([4]; C2C12, 25 μM, 90 min, no insulin): did not appreciably affect
- Increase of IRβ phosphorylation level after stimulation with insulin ([5]; HepG2, 25 μM for 90 min, then 10 nM insulin 30 min, control cells 39%): 260%
- Effect on basal phosphorylation levels of IRβ ([5]; HepG2, 25 μM, 90 min, no insulin): marked reduction

— paper PMC7828111, “In Search for Multi-Target Ligands as Potential Agents for Diabetes Mellitus and Its Complications—A Structure-Activity Relationship Study on Inhibitors of Aldose Reductase and Protein Tyrosine Phosphatase 1B” (Molecules, 2021)
